Paper PMC8318231, “Rate-of-Kill (RoK) assays to triage large compound sets for Chagas disease drug discovery: Application to GSK Chagas Box” (PLoS Neglected Tropical Diseases, 2021)
Several values for one entry are separate records, joined by “and”; a condition that tells them apart may be missing. Equal entries are not always repeated.

Key:
[1] = tested on: T. cruzi intracellular amastigotes in H9c2 cells; assay: RoK combination assay with BNZ; format: cell-based, Trypanosoma cruzi
Method: The assay was performed following the same experimental procedure mentioned above in the RoK assay. The infected H9c2 cells were treated with final 10 and 50 μM concentrations of BNZ and DMSO before being dispensed into the plates containing the compounds. For the combination with 50 μM BNZ, two plates were incubated for 4 and 24 hours respectively before being fixed. For the combinations with 10 μM BNZ and with DMSO, four plates for each condition were incubated for 4, 24, 48 and 72 hours before being fixed.

[2] = tested on: H9c2 (rat cardiomyocytes); assay: RoK assay, number of host cells nuclei (drug-related cytotoxicity, H9c2 output, Cmin_Tox); conditions: H9c2 host cells
Method: For this high-content intracellular imaging assay, H9c2 cells were seeded in 225 cm^2 T- FLASK in DMEM with 10% FBS for 4 h to allow attachment. T. cruzi trypomastigotes, collected at days 5 to 8 after infection from LLC-MK2 parasite infected cultures, were allowed to swim out for 4 h at 37°C from a centrifuged pellet (1,600 x g / 10 min). Trypomastigotes were then collected and counted in a CASY Cell Counter using the 60 μm capillary. […] Cells were washed once with PBS before incubation of the infected H9c2 monolayer with trypsin (Life-Technologies) to detach cells from the flask. Cells were counted in a CASY Cell Counter, using the 150 μm capillary, and their density set at 5 x 10^4 cells/mL in supplemented DMEM. Infected H9c2 were dispensed into 384-well plates at 50 μL per well using a Multidrop Combi dispenser. Control wells used to determine a 100% parasitic growth (full 6th column of each plate) were left untreated, whereas not infected cells were added in the control wells used as 0% parasite growth (or 100% parasite growth inhibition; full 18th column of each plate). The four plates corresponding to each RoK assay were predispensed for the same mother plate. […] Cultures were then fixed and stained with 50 μL per well of a PBS solution containing 4% formaldehyde and 2 μM DRAQ5 DNA dye (BioStatus, UK). Then plates were read in a PerkinElmer Opera Phenix using a 20x objective, 3 fields per well. DRAQ5 signal was detected using 640 nm excitation laser and a 690/50 nm emission detection filter. Automated image analysis was performed with a script developed on Acapella High Content Imaging and Analysis Software (PerkinElmer). Two outputs were provided for each sample well: (1) number of host cells nuclei to determine drug-related cytotoxicity (aka H9c2) and (2) number of amastigotes per cell as infection level measurement (aka AM/CELL). Each output is plotted as a time course for each compound at every concentration. This assay was adapted from Alonso-Padilla et al. and Peña et al..
• ME (Maximum Effect) is the maximum percentage of parasite burden reduction reached by any compound concentration. Compounds that decrease the initial parasite load will show a positive value of ME, whereas compounds that allow the progression of infection will render a negative ME value. […] It is calculated for the MCC50 (t50%_MCC50) and for the maximum concentration (t50%_Cmax). […] The value of this parameter is not either interpolated or extrapolated, and it refers to the first experimental time-course point at which a 50% of effect is reached or exceeded. • tlag defines the time elapsed for one particular concentration to reduce parasite burden between two consecutive points at any moment of the time course. It is calculated for the MCC50 (tlag_MCC50) and for the maximum concentration (tlag_Cmax). The value of this parameter is not either interpolated or extrapolated, and it refers to the first experimental time-course point of a positive slope in the normalised plot (i.e. %Cidal_Response). • Cmin_Tox (Minimal CytoToxic Concentration) is the lowest compound concentration that is reducing the number of host mammalian cells below 50% of initial cell density. Cytotoxic compounds may mislead a bona fide antiparasitic action. Therefore, this descriptor is used to flag this kind of compounds and warn about the genuine meaning of the rest of descriptors.

[3] = tested on: T. cruzi Tulahuen trypomastigotes; assay: T. cruzi trypomastigote assay (Cell Titer-Glo viability, ATP luminescence); format: cell-based, Trypanosoma cruzi; conditions: pIC50 = -log10 IC50 in molar units
Summary of the method: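 Compounds were tested in dose response or once at a final 5 μM against 5 × 10^4 trypomastigotes per well (DMEM, 2% FBS), collected on days 5–8 from LLC-MK2 infected cultures. ATP luminescence via CellTiter-Glo reports live parasites; DMSO defines 0% and cell-free wells 100% effect.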

[4] = tested on: TcCYP51; conditions: formerly reported; cited from earlier work

O=C(Cn1ccnc1[N+](=O)[O-])NCc1ccccc1 [BNDZ 10]
AM/CELL ([1]; combo BNDZ 10 with unnamed compound at Concentration 16.6667, time 4): 2.035 and 2.023
AM/CELL ([1]; combo BNDZ 10 with unnamed compound at Concentration 16.6667, time 24): 1.123 and 1.3558
AM/CELL ([1]; combo BNDZ 10 with unnamed compound at Concentration 16.6667, time 48): 0.3934 and 0.4677
AM/CELL ([1]; combo BNDZ 10 with unnamed compound at Concentration 16.6667, time 72): 0.5411 and 0.6092
AM/CELL ([1]; combo BNDZ 10 with unnamed compound at Concentration 50, time 4): 1.931 and 1.78
AM/CELL ([1]; combo BNDZ 10 with unnamed compound at Concentration 50, time 24): 0.8406 and 1.092
AM/CELL ([1]; combo BNDZ 10 with unnamed compound at Concentration 50, time 48): 0.412 and 0.3872
AM/CELL ([1]; combo BNDZ 10 with unnamed compound at Concentration 50, time 72): 0.6445 and 0.5238

Cc1ccc(S(=O)(=O)Nc2ccc(CN3CCN(C(=O)c4cccc(C#N)c4)CC3)cc2)cc1.O=C(O)C(F)(F)F [TCMDC-143497]
Cmin_Tox [2]: >50 µM
Trypomastigotes pIC50 48 hours ([3]; 48 hours incubation): < 4.3
Trypomastigotes pIC50 72 hours ([3]; 72 hours incubation): 4.9
CYP51 pIC50 [4]: < 4
